The source of these data is patent publication US20250333424A1, “ANTIVIRAL COMPOUNDS” (Gilead Sciences, Inc., priority 2024, published 2025).

Assay [1] has as its system CD4 cells, isolated from healthy donor PMBCs, infected with HIV VSV-G pseudotyped GFP-GAG reporter virus. In words: tissue or blood. In kind it is cell-based. Conditions: Homo sapiens, 72 h.
Assay [2] deals with monocytic THP1 cells infected with HIV VSV-G pseudotyped GFP-NEF reporter virus. The experiment in a line: cells. It is filed as cell-based. The settings on record: Human immunodeficiency virus 1, THP-1, 24 h.

Molecules are shown by their SMILES.

Regarding `Cc1cc(/C=C/C#N)cc(C)c1Oc1nc(NC23CC(C#N)(C2)C3)nc2[nH]ncc12` [Compound 10, (E)-3-((4-(4-(2-cyanovinyl)-2,6-dimethylphenoxy)-1H-pyrazolo[3,4-d]pyrimidin-6-yl)amino)bicyclo[1.1.1]pentane-1-carbonitrile], the EC50 in assay [1] was 54.7 nM; in assay [2] it was 65.9 nM.
`Cc1nc2nc(NC34CC(C#N)(C3)C4)nc(Oc3c(C)cc(/C=C/C#N)cc3C)c2[nH]1` [Compound 14, (E)-3-((6-(4-(2-cyanovinyl)-2,6-dimethylphenoxy)-8-methyl-7H-purin-2-yl)amino)bicyclo[1.1.1]pentane-1-carbonitrile]: the 50% effective concentration (EC50) in assay [1] came to 84.2 nM; in assay [2], 81.3 nM.
For `Cc1cc(/C=C/C#N)cc(C)c1Nc1nc(NC23CC(C#N)(C2)C3)nc2scnc12` [Compound 23, (E)-3-((7-((4-(2-cyanovinyl)-2,6-dimethylphenyl)amino)thiazolo[5,4-d]pyrimidin-5-yl)amino)bicyclo[1.1.1]pentane-1-carbonitrile] the same measures were 17 nM and 31.7 nM.
On the same counts, the results for `Cc1cc(/C=C/C#N)cc(C)c1Oc1nc(NC23CC(C#N)(C2)C3)nc2[nH]c(=O)[nH]c12` [Compound 27, (E)-3-((6-(4-(2-cyanovinyl)-2,6-dimethylphenoxy)-8-oxo-8,9-dihydro-7H-purin-2-yl)amino)bicyclo[1.1.1]pentane-1-carbonitrile] are 99.4 nM and 68.3 nM.
As for `COc1ccc(Cn2cnc3c(Oc4c(C)cc(/C=C/C#N)cc4C)nc(NC45CC(C#N)(C4)C5)nc32)cc1` [Compound 42, (E)-3-((6-(4-(2-cyanovinyl)-2,6-dimethylphenoxy)-9-(4-methoxybenzyl)-9H-purin-2-yl)amino)bicyclo[1.1.1]pentane-1-carbonitrile], the figures for the EC50 in assay [1] and in assay [2] were 894 nM and 518 nM, respectively.
For `COc1ccc(Cn2cnc3nc(NC45CC(C#N)(C4)C5)nc(Oc4c(C)cc(/C=C/C#N)cc4C)c32)cc1` [Compound 43, (E)-3-((6-(4-(2-cyanovinyl)-2,6-dimethylphenoxy)-7-(4-methoxybenzyl)-7H-purin-2-yl)amino)bicyclo[1.1.1]pentane-1-carbonitrile] the same measures were 87.7 nM and 90.5 nM.
Take `Cc1cc(/C=C/C#N)cc(C)c1Oc1nc(NC23CC(C#N)(C2)C3)nc2nc(C3CC3)[nH]c12` [Compound 49, (E)-3-((6-(4-(2-cyanovinyl)-2,6-dimethylphenoxy)-8-cyclopropyl-7H-purin-2-yl)amino)bicyclo[1.1.1]pentane-1-carbonitrile]: the values for the EC50 in assay [1] and in assay [2] were 166 nM and 110 nM, respectively.
`Cc1cc(/C=C/C#N)cc(C)c1Oc1nc(NC23CC(C#N)(C2)C3)nc2nc(C3CCC3)[nH]c12` [Compound 50, (E)-3-((6-(4-(2-cyanovinyl)-2,6-dimethylphenoxy)-8-cyclobutyl-7H-purin-2-yl)amino)bicyclo[1.1.1]pentane-1-carbonitrile]: the EC50 was found to be 151 nM in assay [1] and 166 nM in assay [2].
On the same counts, the results for `Cc1nc2c(Nc3c(C)cc(/C=C/C#N)cc3C)nc(NC34CC(C#N)(C3)C4)nc2s1` [Compound 55, (E)-3-((7-((4-(2-cyanovinyl)-2,6-dimethylphenyl)amino)-2-methylthiazolo[5,4-d]pyrimidin-5-yl)amino)bicyclo[1.1.1]pentane-1-carbonitrile] are 25.9 nM and 130 nM.
For `Cc1cc(/C=C/C#N)cc(C)c1Oc1nc(NC23CC(C#N)(C2)C3)nc2scnc12` [Compound 56, (E)-3-((7-(4-(2-cyanovinyl)-2,6-dimethylphenoxy)thiazolo[5,4-d]pyrimidin-5-yl)amino)bicyclo[1.1.1]pentane-1-carbonitrile] the same measures were 96.6 nM and 142 nM.
For `Cc1cc(/C=C/C#N)cc(C)c1Oc1nc(NC23CC(C#N)(C2)C3)nc2nc(C(C)(C)O)[nH]c12` [Compound 60, (E)-3-((6-(4-(2-cyanovinyl)-2,6-dimethylphenoxy)-8-(2-hydroxypropan-2-yl)-7H-purin-2-yl)amino)bicyclo[1.1.1]pentane-1-carbonitrile] the same measures were 175 nM and 373 nM.
On to `Cc1cc(/C=C/C#N)cc(C)c1Oc1nc(NC23CC(C#N)(C2)C3)nc2nc(-c3cnn(C)c3)[nH]c12` [Compound 64, (E)-3-((6-(4-(2-cyanovinyl)-2,6-dimethylphenoxy)-8-(1-methyl-1H-pyrazol-4-yl)-7H-purin-2-yl)amino)bicyclo[1.1.1]pentane-1-carbonitrile], for which the EC50 in assay [1] came out at 274 nM; in assay [2] it was 123 nM.
On the same counts, the results for `Cc1cc(/C=C/C#N)cc(C)c1Oc1nc(NC23CC(C#N)(C2)C3(F)F)nc2nn(C)cc12` [Compound 76, (E)-3-((4-(4-(2-cyanovinyl)-2,6-dimethylphenoxy)-2-methyl-2H-pyrazolo[3,4-d]pyrimidin-6-yl)amino)-2,2-difluorobicyclo[1.1.1]pentane-1-carbonitrile] are 19.3 nM and 25.3 nM.
With `Cc1cc(/C=C/C#N)cc(C)c1Oc1nc(NC23CC(C#N)(C2)C3)nc2[nH]nnc12` [Compound 80, €-3-((7-(4-(2-cyanovinyl)-2,6-dimethylphenoxy)-3H-[1,2,3]triazolo[4,5-d]pyrimidin-5-yl)amino)bicyclo[1.1.1]pentane-1-carbonitrile], the EC50 in assay [1] was found to be 551 nM; in assay [2], 593 nM.
For `Cc1cc(/C=C/C#N)cc(C)c1OC1=NC(NC23CC(C#N)(C2)C3)=NC2N=CN(C)C12` (centres unmarked) [Compound 89, (E)-3-((6-(4-(2-cyanovinyl)-2,6-dimethylphenoxy)-7-methyl-4,5-dihydro-7H-purin-2-yl)amino)bicyclo[1.1.1]pentane-1-carbonitrile] the same measures were 16.6 nM and 24.4 nM.
In the case of `Cc1cc(/C=C/C#N)cc(C)c1Oc1nc(NC23CC(C#N)(C2)C3)nc2nc(C)n(C)c12` [Compound 97, (E)-3-((6-(4-(2-cyanovinyl)-2,6-dimethylphenoxy)-7,8-dimethyl-7H-purin-2-yl)amino)bicyclo[1.1.1]pentane-1-carbonitrile], the EC50 in assay [1] was 51.1 nM; in assay [2] it was 32.5 nM.
With `Cc1cc(/C=C/C#N)cc(C)c1Oc1nc(NC23CC(C#N)(C2)C3)nc2ncn(CC(F)(F)F)c12` [Compound 106, (E)-3-((6-(4-(2-cyanovinyl)-2,6-dimethylphenoxy)-7-(2,2,2-trifluoroethyl)-7H-purin-2-yl)amino)bicyclo[1.1.1]pentane-1-carbonitrile], the EC50 is 237 nM in assay [1] and 216 nM in assay [2].
For `Cc1cc(/C=C/C#N)cc(C)c1Oc1nc(NC23CC(C#N)(C2)C3)nc2[nH]nc(C#N)c12` [Compound 112, (E)-6-((3-cyanobicyclo[1.1.1]pentan-1-yl)amino)-4-(4-(2-cyanovinyl)-2,6-dimethylphenoxy)-1H-pyrazolo[3,4-d]pyrimidine-3-carbonitrile] the same measures were 294 nM and 745 nM.
For `Cc1cc(/C=C/C#N)cc(C)c1Oc1nc(NC23CC(C#N)(C2)C3)nc2c1ncn2C(C)C` [Compound 113, (E)-3-((6-(4-(2-cyanovinyl)-2,6-dimethylphenoxy)-9-isopropyl-9H-purin-2-yl)amino)bicyclo[1.1.1]pentane-1-carbonitrile] the same measures were 102 nM and 168 nM.
Take `CCn1cnc2nc(NC34CC(C#N)(C3)C4)nc(Oc3c(C)cc(/C=C/C#N)cc3C)c21` [Compound 114, (E)-3-((6-(4-(2-cyanovinyl)-2,6-dimethylphenoxy)-7-ethyl-7H-purin-2-yl)amino)bicyclo[1.1.1]pentane-1-carbonitrile]: it took 51.1 nM to reach a half-maximal effect in assay [1] (EC50).
For the molecule `Cc1cc(/C=C/C#N)cc(C)c1Oc1nc(NC23CC(C#N)(C2)C3)nc2cc[nH]c12` [Compound 115, (E)-3-((4-(4-(2-cyanovinyl)-2,6-dimethylphenoxy)-5H-pyrrolo[3,2-d]pyrimidin-2-yl)amino)bicyclo[1.1.1]pentane-1-carbonitrile], the figures for the EC50 in assay [1] and in assay [2] were 111 nM and 99.4 nM, respectively.
Take `Cc1cc(/C=C/C#N)cc(C)c1Oc1nc(NC23CC(C#N)(C2)C3)nc2c1CSC2` [Compound 116, (E)-3-((4-(4-(2-cyanovinyl)-2,6-dimethylphenoxy)-5,7-dihydrothieno[3,4-d]pyrimidin-2-yl)amino)bicyclo[1.1.1]pentane-1-carbonitrile]: the EC50 in assay [1] amounted to 63.3 nM.
Still for that read-out and setting: in the case of `Cc1cc(/C=C/C#N)cc(C)c1Oc1nc(NC23CC(C#N)(C2)C3)nc2c1COC2` [Compound 117] it was 23.9 nM.
On the same count and under the same terms, in the case of `Cc1cc(/C=C/C#N)cc(C)c1Oc1nc(NC23CC(C#N)(C2)C3)nc2c1CCO2` [Compound 118, (E)-3-((4-(4-(2-cyanovinyl)-2,6-dimethylphenoxy)-5,6-dihydrofuro[2,3-d]pyrimidin-2-yl)amino)bicyclo[1.1.1]pentane-1-carbonitrile] it was 80.4 nM; in that of `COC(=O)N1Cc2nc(NC34CC(C#N)(C3)C4)nc(Oc3c(C)cc(/C=C/C#N)cc3C)c2C1` [Compound 151, (E)-methyl 2-((3-cyanobicyclo[1.1.1]pentan-1-yl)amino)-4-(4-(2-cyanovinyl)-2,6-dimethylphenoxy)-5H-pyrrolo[3,4-d]pyrimidine-6(7H)-carboxylate], 76 nM.
For the molecule `Cc1cc(/C=C/C#N)cc(C)c1Oc1nc(NC23CC(C#N)(C2)C3)nc2c1C[N+](C)(C)C2` [Compound 152, (E)-2-((3-cyanobicyclo[1.1.1]pentan-1-yl)amino)-4-(4-(2-cyanovinyl)-2,6-dimethylphenoxy)-6,6-dimethyl-6,7-dihydro-5H-pyrrolo[3,4-d]pyrimidin-6-ium], a half-maximal response in assay [1] (EC50) required 3360 nM.
As for `Cc1cc(/C=C/C#N)cc(C)c1Oc1nc(NC23CC(CC(F)F)(C2)C3)nc2nc[nH]c12` [Compound 155, (E)-3-(4-((2-((3-(2,2-difluoroethyl)bicyclo[1.1.1]pentan-1-yl)amino)-7H-purin-6-yl)oxy)-3,5-dimethylphenyl)acrylonitrile], the EC50 in assay [1] worked out at 419 nM.
